Columns and labels:
Format in all cases: cell-based, human
[1] = tested on: PBMC from individuals with non-small cell lung cancer (NSCLC); assay: IFNγ ELISpot after 7 day short-term culture, NSCLC patients (Example 3); conditions: for responder frequency: NSCLC patients, percentage of patients with peptide responses of greater than 500 SFC/million, peptide pools 5 μg/peptide/mL; for IFN-γ ELISpot spot intensity in NSCLC patients compared with healthy subjects: FIG. 7, Mann-Whitney unpaired test
[2] = tested on: PBMC from healthy subjects; assay: Peptide-specific T cell responses by IFN-γ ELISpot after short term culture, healthy subjects (Example 2); conditions: positive response = SFC/10^6 PBMC greater than 20, pools of overlapping 18-mer peptides at 5 μg/peptide/mL
Procedure: Peptide-specific T cell responses were evaluated in peripheral mononuclear cells obtained from healthy subjects. After thawing, PBMC were cultured in 24-well flat bottom plates (or 48-well bottom plates) at a density of 1 million cells per ml in the presence of culture medium (RPMI 1640 Medium, Glutamax™ (Life Technologies) with 5% (v/v) human AB Serum (PAA Laboratories Ltd)) and a pool of peptides (composed of P103-P53, P513_MAGE3, P679_MAGE3, P805_NY_ESO1, P1575_HER, P2238-HER, P3825_MUC1, P3776_MUC1, P4540_hTERT, P4575_hTERT, P5400_MAGE1, P-HAGE) at a total final concentration of 20 μg/mL.
The plates were incubated at 37° C. in a 5% CO2 incubator and on Day 4, recombinant human IL-2 and IL-15 (R&D Systems) were added to each well at final concentrations of 10 IU/ml and 10 ng/mL respectively. On Day 7, PBMC cultures were removed and washed in culture medium and replaced back into wells in culture medium containing 10 IU/mL of IL-2. After overnight resting at 37° C. in a 5% CO2 incubator, cells were removed, counted and assessed for viability. PVDF plates (MSIPS4510, Millipore) were coated with anti-human IFN-γ antibody (R&D systems) and incubated overnight at 4° C. Plates were then washed and incubated with blocking buffer (1% BSA (PAA), 5% sucrose (Fisher), Dulbecco's-PBS (Invitrogen)) for at least 1 hour and finally washed with culture medium before use. […] After 18 hours of culture, plates were washed and incubated with a biotinylated secondary anti-human IFN-γ antibody (R&D systems) followed by streptavidin-AP. Production of IFN-γ was detected using the ELISpot blue colour module (R&D Systems) as per manufacturer's instructions. Plates were scanned and wells were counted using an automated ELISpot plate reading system equipped with spot counting software (Cellular Technology Limited). Results are expressed as Spot Forming Cells (SFC)/10^6 PBMC and background responses represented by IFNγ SFC of PBMC in culture medium alone have been subtracted for each subject. Positive response was defined as number of Spot Forming Cells (SFC)/10^6 PBMC greater than 20.

[3] = tested on: PBMC from NSCLC subjects; assay: Intracellular cytokine staining (ICS) of CD4+ and CD8+ T cells after short-term culture; conditions: for Th1 cytokine-producing CD4 and/or CD8 T cell responses: intracellular cytokine staining, FIGS. 8, 9 and 10; for level of response among the peptides in the mixture: short term culture with a combination of peptide pools
Procedure: PBMC were cultured in 2 mL culture medium (CM, RPMI1640 Glutamax supplemented with 5% untreated human AB serum (PAA) and gentamicin) in 24 well cell culture plates at a concentration of 1×10^6 cells/mL for a total of 7 days. Each pool was added at 20 μg/mL total peptide final concentration. On day 1, IL-7 (Peprotech) and IL-2 (R&D Systems) were added to the cultures to a final concentration of 5 ng/mL and 10 IU/mL respectively. On day 3, IL-2 was added at a concentration of 10 IU/mL. On day 7, cells were harvested from cell culture plates washed with culture medium and counted using TruCount (BD Biosciences) before analysis using IFNγ (interferon gamma) ELISpot assay or intracellular cytokine staining (ICS) as described below.
Short term culture of PBMC were prepared as described above, except culture conditions 1 and 2 were replaced with alternative culture conditions 1 to 5 below, each of which involves stimulation with a different combination of peptide pools:
Culture 5: P-P805_NY_ESO1
Cells from the short-term cultures were plated in a 96 well round bottom plate at 5×10^5 PBMC/well stimulated with individual peptide pools used at a concentration of 5 μg/peptide/mL. Plates were incubated at 37° C. in a 5% CO2 incubator for 20h. PMA/Ionomycin was added to respective wells and Golgi plug (BD Biosciences) was added to all wells after the first 3h of the assay. The cells were harvested and washed with PBS+0.1% BSA (wash buffer) and stained with anti-CD3, anti-CD4 and anti-CD8 (BD Biosciences) for 30 minutes at 4° C. After another wash, the cells were fixed and permeabilised with 100 μL of Cytofix/Cytoperm solution (BD Biosciences) for 20 minutes at 4° C., followed by two washes with 1× Perm/Wash solution (BD Biosciences). Finally, cells were stained with ant-IL-2-FITC, anti-IFNγ-PE and anti-TNFα PerCP-Cy5.5 (BD Biosciences) for 30 minutes at 4° C. Samples were acquired on a FACSCanto II flow cytometer (BD Biosciences). Gating was based on isotype control antibody staining and media stimulated samples for each subject.

[4] = tested on: PBMC from healthy individuals; assay: IFNγ ELISpot after 7 day short-term culture, healthy individuals (Example 3); conditions: healthy subjects (FIGS. 3 and 5)

Sequence	responder frequency [1] [%]	IFN-γ ELISpot spot intensity in NSCLC patients compared with healthy subjects [1]	frequency of responding subjects [2] [%]	Th1 cytokine-producing CD4 and/or CD8 T cell responses [3]	other results
AFLSVKKQFEELTLGEFLKLDRERAKNKIAKETNNKKKE (listed as Homo sapiens) [P991_SURVIVIN]	14.51				
AGIRRDGLLLRLVDDFLLVTPHLTHAKTFLRTLVRGVPEYG (listed as Homo sapiens) [P4862_TERT]					responder frequency ([1]; listed as P4862_hTERT): 7.93%
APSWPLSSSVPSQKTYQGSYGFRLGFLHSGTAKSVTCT (listed as Homo sapiens) [P103-P53]		significantly lower	100	ability to promote Th1 cytokine-producing CD4 and/or CD8 T cell responses	
EFQAALSRKVAELVHFLLLKYRAREPVTKAEMLG (listed as Homo sapiens) [P513_MAGE3]	18.46		50		
EMFLQIYKQGGFLGLSNIKFRPGSVVVQLTLAFREGTINVH (listed as Homo sapiens) [P3825_MUC1]	8.06		17		
GAQYRIHTHGVFRGIQDVRRVPGVAPTLVRSASETSEKRPF (listed as Homo sapiens) [P1331_WT1]	5.08				
GENVKIPVAIKVLRENTSPKANKEILDEAYVMAGVGSPYVSRKK (listed as Homo sapiens) [P2238-HER]	10.00		83		
HREARPALLTSRLRFIPKPDGLRPIVNMDYVVGARTFRREK [P4616_hTERT]	37.50			ability to promote Th1 cytokine-producing CD4 and/or CD8 T cell responses	
HRLREEILAKFLHWLMSVYVVELLRSFFYVTETTFQKNR (listed as Homo sapiens) [P4540_hTERT]	23.43	significantly lower	67	ability to promote Th1 cytokine-producing CD4 and/or CD8 T cell responses	
ILESLFRAVITKKVADLVGFLLLKYRAREPVTKAEMLESVIK (listed as Homo sapiens) [P5232_MAGE1]	32.25	significantly lower		ability to promote Th1 cytokine-producing CD4 and/or CD8 T cell responses	
LGLSYDGLLGDNQIMPKAGLLIIVLAIIAREGD (listed as Homo sapiens) [P590-MAGE3]	15.87				
MTPGTQSPFFLLLLLTVLTVVTGSGHASSTPGG (listed as Homo sapiens) [P2753_MUC1]	4.76				
PALGSTAPPVHNVTSASGSASGSASTLVHNGTSARATTTPASK (listed as Homo sapiens) [P3698_MUC1]	14.06				
PARYEFLWGPRALAETSYVKVLEYVIKVSARVRFFFPSLREA (listed as Homo sapiens) [P5400_MAGE1]	27.41	significantly lower	100	ability to promote Th1 cytokine-producing CD4 and/or CD8 T cell responses	level of response among the peptides in the mixture [3]: highest level of response
PDGPGGNAGGPGEAGATGGRGPRGAGAARASGPGGGAP (listed as Homo sapiens) [P750-NYESO, used as a negative control peptide]	3.12				magnitude of response and responder frequency ([1]; NSCLC patients (FIGS. 2 and 4)): amongst the lowest responding peptides; magnitude of response and responder frequency [4]: amongst the lowest responding peptides
QTGTGKTLCYLMPGFIHLVLQPSLKGQRNRPGMLV (listed as Homo sapiens) [P-HAGE]		significantly lower	50	ability to promote Th1 cytokine-producing CD4 and/or CD8 T cell responses	
RAVRSLLRSHYREVLPLATFVRRLGPQGWRLVQRGDPAAFRA (listed as Homo sapiens) [P4020_hTERT]	32.81	significantly lower		ability to promote Th1 cytokine-producing CD4 and/or CD8 T cell responses	
RGPESRLLEFYLAMPFATPMEAELARRSLAQDAPPLPVPG (listed as Homo sapiens) [P805_NY_ESO1]	34.92	significantly lower	50	ability to promote Th1 cytokine-producing CD4 and/or CD8 T cell responses	level of response among the peptides in the mixture [3]: highest level of response
RLLQLHITMPFSSPMEAELVRRILSRDAAPLPRPGAVL (listed as Homo sapiens) [P5525_LAGE1]	31.03	significantly lower		ability to promote Th1 cytokine-producing CD4 and/or CD8 T cell responses	
RTFRREKRAERLTSRVKALFSVLNYERARRPGLLGASVLGLDDI (listed as Homo sapiens) [P4650_hTERT]	38.70	significantly lower		ability to promote Th1 cytokine-producing CD4 and/or CD8 T cell responses	
SVVGNWQYFFPVIFSKASSSLQLVEGIELMEVDPIGHLYIF (SVVGNWQYFFPVIFSKASSSLQLVFGIELMEVDPIGHLYIF; listed as Homo sapiens) [P550_MAGE3]		significantly lower		ability to promote Th1 cytokine-producing CD4 and/or CD8 T cell responses	level of response among the peptides in the mixture [3]: highest level of response
TFQKNRLFFYRKSVWSKLQSIGIRQHLKRVQLRELSEAEVR (listed as Homo sapiens) [P4575_hTERT]			100	ability to promote Th1 cytokine-producing CD4 and/or CD8 T cell responses	
TSSNHSTSPQLSTGVSFFFLSFHISNLQFNSSLEDPST (listed as Homo sapiens) [P3776_MUC1]	4.76		100		
VQGYVLIAHNQVRQVPLQRLRIVRGTQLFEDNYALAVL (listed as Homo sapiens) [P1575_HER]	16.12		100		
YEFLWGPRALVETSYVKVLHHMVKISGGPHISYPPLH (listed as Homo sapiens) [P679_MAGE3]	28.57	significantly lower	80	ability to promote Th1 cytokine-producing CD4 and/or CD8 T cell responses	
